Reference: US6630505B2, “Aminopyrrolidine sulfonamides as serine protease inhibitors” (Ortho-McNeil Pharmaceutical, Inc., priority 2001, dated 2003)

Target: T1, human Lung Tryptase
T1 construct: 1.0 nM human Lung Tryptase
Test: Tryptase inhibition, chromogenic peptide substrate hydrolysis assay
Assay type: biochemical
Details: 1.0 nM tryptase, 500 μM N-p-Tosyl-GLY-PRO-LYS-pNA, 37° C.
Protocol: The rate of increase in absorbance at 405 nm due to hydrolysis of synthetic chromogenic peptide substrates ([S]: 500 μM N-p-Tosyl-GLY-PRO-LYS-pNA; Sigma T-6140) is measured in the presence and absence of inhibitors (I) with a microplate reader at 37° C. The enzyme reaction is started by the addition of enzyme ([E]: 1.0 nM human Lung Tryptase; Cortex Biochem CP3033). Data is collected over a period of 30 min. and the initial rate of substrate hydrolysis (Vo (mOD/min)) is calculated. Inhibition is calculated by comparing to wells […] (vehicle) and IC50s are determined using a four parameters fit logistics model.

Point of comparison: `COC(=O)c1cc(CN(C(=O)c2ccc(N=C(N)N)cc2)C2CCN(S(=O)(=O)/C=C/c3ccc(Cl)cc3)C2)ccc1O` (stereo not shown) [Compound 25, 5-[[[1-[[(E)-2-(4-chlorophenyl)ethenyl]sulfonyl]-3-pyrrolidinyl][4-[(diaminomethylene)amino]benzoyl]amino]methyl]-2-hydroxy-benzoic acid methyl ester], IC50 700 nM. Against it:
- NC(N)=Nc1ccc(C(=O)N(Cc2ccc(O)cc2)C2CCN(S(=O)(=O)/C=C/c3ccc(Cl)cc3)C2)cc1 (stereo not shown) [Compound 2, N-[1-[[(E)-2-(4-chlorophenyl)ethenyl]sulfonyl]-3-pyrrolidinyl]-4-[(diaminomethylene)amino]-N-[(4-hydroxyphenyl)methyl]-benzamide] — within 1.5-fold, 900 nM
- NC(N)=Nc1ccc(C(=O)NC2CCN(S(=O)(=O)/C=C/c3ccc(Cl)cc3)C2)cc1 (stereo not shown) [Compound 26, N-[1-[[(E)-2-(4-chlorophenyl)ethenyl]sulfonyl]-3-pyrrolidinyl]-4-[(diaminomethylene)amino]-benzamide] — within 1.5-fold, 600 nM
- N-[[4-[(aminoiminomethyl)amino]phenyl]methyl]-N-[1-[[(E)-2-(4-chlorophenyl)ethenyl]sulfonyl]-3-pyrrolidinyl]-4-[(diaminomethylene)amino]-benzamide [Compound 24] — 5.7-fold higher, 4000 nM

Target: T2, human Factor Xa (Homo sapiens, UniProt P00742)
T2 construct: commercial human Factor Xa (American Diagnostica); purchased American Diagnostica
T2 sequence (P00742 235-488 limits assumed): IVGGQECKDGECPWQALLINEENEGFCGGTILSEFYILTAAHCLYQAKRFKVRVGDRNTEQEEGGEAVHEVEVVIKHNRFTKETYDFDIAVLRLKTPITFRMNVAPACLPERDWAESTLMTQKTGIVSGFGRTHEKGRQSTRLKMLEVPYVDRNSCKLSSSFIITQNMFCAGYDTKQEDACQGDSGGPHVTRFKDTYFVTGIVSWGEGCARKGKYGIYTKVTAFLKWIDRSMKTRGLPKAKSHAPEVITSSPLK
T2 sequence (P00742 41-179 partner limits assumed): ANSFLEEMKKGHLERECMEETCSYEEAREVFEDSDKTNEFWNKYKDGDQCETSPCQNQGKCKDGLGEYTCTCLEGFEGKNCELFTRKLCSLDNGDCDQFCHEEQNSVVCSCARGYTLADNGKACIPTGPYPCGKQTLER
Test: Factor Xa inhibition, enzyme-catalyzed hydrolysis assay (chromogenic substrate)
Assay type: biochemical
Details: 5.7 nM Factor Xa, 30-700 μM substrate, pH 8.4, 37° C.
Protocol: Enzyme-catalyzed hydrolysis rates were measured spectrophotometrically using commercial human Factor Xa (American Diagnostica), the chromogenic substrate (Meo—CO—D—CHG—Gly—Arg—pNa (American Diagnostica); in aqueous buffer (50 mM Trisma Base, 0.1% Tween 80, pH 8.4), and a microplate reader (Molecular Devices). Changes in absorbance at 405 nm were monitored using the software program Softmax (Molecular Devices), upon addition of enzyme, with and without inhibitor present at 37° C. for 30 minutes. The IC50 values were determined by fixing the enzyme and substrate concentrations (5.7 nM Factor Xa, 500 μM Factor Xa substrate) and varying the inhibitor concentration. Percent inhibition was calculated by comparing the initial reaction slopes of the without inhibitor samples to those with inhibitor. Inhibition constants (Ki) were determined by fixing the enzyme concentrations (5.7 nM Factor Xa) and inhibitor concentration and varying the substrate concentrations (30-700 μM Factor Xa substrate. Michaelis-Menton kinetics were applied to the initial reaction slopes using the program Kcat (Bio Metallics Inc.).

Point of comparison: `NC(N)=Nc1ccc(C(=O)N(Cc2ccccc2)C2CCN(S(=O)(=O)/C=C/c3ccc(Cl)cc3)C2)cc1` (stereo not shown) [Compound 1, N-[1-[[(E)-2-(4-chlorophenyl)ethenyl]sulfonyl]-3-pyrrolidinyl]-4-[(diaminomethylene)amino]-N-(phenylmethyl)-benzamide], Ki 1600 nM. Against it:
- 4-[(aminoiminomethyl)amino]-N-(2-benzofuranylmethyl)-N-[1-[[(E)-2-(4-chlorophenyl)ethenyl]sulfonyl]-3-pyrrolidinyl]-benzamide [Compound 27] — 16-fold lower, 100 nM
- NC(N)=Nc1ccc(C(=O)N(Cc2ccc(O)cc2)C2CCN(S(=O)(=O)/C=C/c3ccc(Cl)cc3)C2)cc1 (stereo not shown) [Compound 2, N-[1-[[(E)-2-(4-chlorophenyl)ethenyl]sulfonyl]-3-pyrrolidinyl]-4-[(diaminomethylene)amino]-N-[(4-hydroxyphenyl)methyl]-benzamide] — 5.3-fold lower, 300 nM
- COC(=O)c1ccc(CN(C(=O)c2ccc(N=C(N)N)cc2)C2CCN(S(=O)(=O)/C=C/c3ccc(Cl)cc3)C2)cc1 (stereo not shown) [Compound 3, 4-[[[1-[[(E)-2-(4-chlorophenyl)ethenyl]sulfonyl]-3-pyrrolidinyl][4-[(diaminomethylene)amino]benzoyl]amino]methyl]-benzoic acid methyl ester] — 4-fold lower, 400 nM
- COC(=O)c1cccc(CN(C(=O)c2ccc(N=C(N)N)cc2)C2CCN(S(=O)(=O)/C=C/c3ccc(Cl)cc3)C2)c1 (stereo not shown) [Compound 4, 3-[[[1-[[(E)-2-(4-chlorophenyl)ethenyl]sulfonyl]-3-pyrrolidinyl][4-[(diaminomethylene)amino]benzoyl]amino]methyl]-benzoic acid methyl ester] — 4.8-fold higher, 7700 nM
- NC(N)=Nc1ccc(C(=O)N(Cc2ccc(C(=O)O)cc2)C2CCN(S(=O)(=O)/C=C/c3ccc(Cl)cc3)C2)cc1 (stereo not shown) [Compound 5, 4-[[[1-[[(E)-2-(4-chlorophenyl)ethenyl]sulfonyl]-3-pyrrolidinyl][4-[(diaminomethylene)amino]benzoyl]amino]methyl]-benzoic acid] — 8-fold lower, 200 nM
- NC(N)=Nc1ccc(C(=O)N(Cc2cccc(C(=O)O)c2)C2CCN(S(=O)(=O)/C=C/c3ccc(Cl)cc3)C2)cc1 (stereo not shown) [Compound 6, 3-[[[1-[[(E)-2-(4-chlorophenyl)ethenyl]sulfonyl]-3-pyrrolidinyl][4-[(diaminomethylene)amino]benzoyl]amino]methyl]-benzoic acid] — 2.7-fold lower, 600 nM
- COC(=O)COc1cccc(CN(C(=O)c2ccc(N=C(N)N)cc2)C2CCN(S(=O)(=O)/C=C/c3ccc(Cl)cc3)C2)c1 (stereo not shown) [Compound 8, [3-[[[1-[[(E)-2-(4-chlorophenyl)ethenyl]sulfonyl]-3-pyrrolidinyl][4-[(diaminomethylene)amino]benzoyl]amino]methyl]phenoxy]-acetic acid methyl ester] — within 1.5-fold, 1100 nM
- NC(=O)c1ccc(CN(C(=O)c2ccc(N=C(N)N)cc2)C2CCN(S(=O)(=O)/C=C/c3ccc(Cl)cc3)C2)cc1 (stereo not shown) [Compound 9, N-[[4-(aminocarbonyl)phenyl]methyl]-N-[1-[[(E)-2-(4-chlorophenyl)ethenyl]sulfonyl]-3-pyrrolidinyl]-4-[(diaminomethylene)amino]-benzamide] — 5.3-fold lower, 300 nM
- COC(=O)CNC(=O)c1ccc(CN(C(=O)c2ccc(N=C(N)N)cc2)C2CCN(S(=O)(=O)/C=C/c3ccc(Cl)cc3)C2)cc1 (stereo not shown) [Compound 10, [[4-[[[1-[[(E)-2-(4-chlorophenyl)ethenyl]sulfonyl]-3-pyrrolidinyl][4-[(diaminomethylene)amino]benzoyl]amino]methyl]benzoyl]amino]-acetic acid methyl ester] — 8-fold lower, 200 nM
- NC(N)=Nc1ccc(C(=O)N(Cc2cccc(OCC(=O)O)c2)C2CCN(S(=O)(=O)/C=C/c3ccc(Cl)cc3)C2)cc1 (stereo not shown) [Compound 11, [3-[[[1-[[(E)-2-(4-chlorophenyl)ethenyl]sulfonyl]-3-pyrrolidinyl][4-[(diaminomethylene)amino]benzoyl]amino]methyl]phenoxy]-acetic acid] — 2.7-fold lower, 600 nM
- NC(N)=Nc1ccc(C(=O)N(Cc2ccc(C(=O)NCC(=O)O)cc2)C2CCN(S(=O)(=O)/C=C/c3ccc(Cl)cc3)C2)cc1 (stereo not shown) [Compound 12, [[4-[[[1-[[(E)-2-(4-chlorophenyl)ethenyl]sulfonyl]-3-pyrrolidinyl][4-[(diaminomethylene)amino]benzoyl]amino]methyl]benzoyl]-amino]-acetic acid] — 4-fold lower, 400 nM
- COC(=O)CNC(=O)c1cccc(CN(C(=O)c2ccc(N=C(N)N)cc2)C2CCN(S(=O)(=O)/C=C/c3ccc(Cl)cc3)C2)c1 (stereo not shown) [Compound 13, [[3-[[[1-[[(E)-2-(4-chlorophenyl)ethenyl]sulfonyl]-3-pyrrolidinyl][4-[(diaminomethylene)amino]benzoyl]amino]methyl]benzoyl]amino]-acetic acid methyl ester] — 8-fold lower, 200 nM
- NC(N)=Nc1ccc(C(=O)N(Cc2cccc(C(=O)NCC(=O)O)c2)C2CCN(S(=O)(=O)/C=C/c3ccc(Cl)cc3)C2)cc1 (stereo not shown) [Compound 14, [[3-[[[1-[[(E)-2-(4-chlorophenyl)ethenyl]sulfonyl]-3-pyrrolidinyl][4-[(diaminomethylene)amino]benzoyl]amino]methyl]benzoyl]amino]-acetic acid] — 5.3-fold lower, 300 nM
- NC(=O)c1cccc(CN(C(=O)c2ccc(N=C(N)N)cc2)C2CCN(S(=O)(=O)/C=C/c3ccc(Cl)cc3)C2)c1 (stereo not shown) [Compound 15, 3-[[[1-[[(E)-2-(4-chlorophenyl)ethenyl]sulfonyl]-3-pyrrolidinyl][4-[(diaminomethylene)amino]benzoyl]amino]methyl]-benzamide] — 2.7-fold lower, 600 nM
- NC(N)=Nc1ccc(C(=O)N2CCC(N(Cc3ccc(OCc4ccccc4)cc3)S(=O)(=O)/C=C/c3ccc(Cl)cc3)C2)cc1 (stereo not shown) [Compound 17, 2-(4-chlorophenyl)-N-[1-[4-[(diaminomethylene)amino]benzoyl]-3-pyrrolidinyl]-N-[[4-(phenylmethoxy)phenyl]methyl]-(E)-ethenesulfonamide] — 2.8-fold higher, 4400 nM
- COC(=O)c1ccc(CN(C2CCN(C(=O)c3ccc(N=C(N)N)cc3)C2)S(=O)(=O)/C=C/c2ccc(Cl)cc2)cc1 (stereo not shown) [Compound 22, 4-[[[[(E)-2-(4-chlorophenyl)ethenyl]sulfonyl][1-[4-[(diaminomethylene)amino]benzoyl]-3-pyrrolidinyl]amino]methyl]-benzoic acid methyl ester] — 4.4-fold higher, 7100 nM
- COc1ccc2ccc(S(=O)(=O)N(Cc3ccccc3)C3CCN(C(=O)c4ccc(N=C(N)N)cc4)C3)cc2c1 (stereo not shown) [Compound 23, N-[1-[4-[(diaminomethylene)amino]benzoyl]-3-pyrrolidinyl]-7-methoxy-N-(phenylmethyl)-2-naphthalenesulfonamide] — 13-fold higher, 21000 nM
